Experimental data as given in patent US12297163B2, “Glycerol derivative, preparation method therefor, and immunomodulator comprising same as effective ingredient” (ENZYCHEM LIFESCIENCES CORPORATION, priority 2018, dated 2025).

Columns and labels:
STAT3 [1] = test: IL-6-induced STAT3 activity, SEAP expression in HEK-Blue IL-6 cells; assay type: cell-based; settings: for STAT3 activity SEAP expression(%) (average ± deviation): negative control = 100
Description: Two experiments were conducted as a method of confirming STAT3 activity. First, HEK-Blue™ IL-6 cells were used to confirm the degree of activity by STAT3-induced SEAP (secreted embryonic alkaline phosphatase) expression. Second, this is a method to check the degree of STAT3 activity by injecting the pGL4.47 [luc2P/SIE/Hygro] vector containing the sis-inducible element that binds to STAT3 into RAW264.7 cells. Table 4 below confirmed the STAT3 activity inhibitory ability of the derivative compound of the present invention using the first method.
In DMEM (Hyclone, Thermo Scientific) medium to which 10% Fetal Bovine Serum was added, HEK-Blue™ IL-6 cells were cultured at a concentration of 1×10^5 cells/ml, and the cells were maintained in a 5% CO2 humidified incubator at 37° C., and cultured. The cultured HEK-Blue™ IL-6 cells were inoculated by 1×10^5 cells/ml, and treat with a glycerol derivative compounds of the type shown in Table 3 below in the culture solution for 1 hour, and then IL-6 (5 ng/ml) was further incubated for 24 hours for STAT3 activity. Thereafter, the culture supernatant was collected for each well and centrifuged (at 3000 rpm, 5 minutes) to recover the supernatant. The SEAP expression level in the recovered supernatant was mixed with Quanti blue reagent and the supernatant at a ratio of 1:10 and left at 37° C. for about 30 minutes. Then, the SEAP concentration was confirmed at 650 nm wavelength using a spectrophotometer, and the results thereof are shown in Table 4 below.

IL-4 = test: PKC activator-induced IL-4 secretion in EL-4 cells (ELISA); assay type: cell-based, mouse; settings: Table 11, sample 100 μg/ml for 2 hours, then PKC activator, 18 hours
Description: Thereafter 0.5 ml of the culture supernatant was collected for each well and centrifuged (at 3000 rpm, 5 minutes) to recover the supernatant. […] Thereafter, the secondary HRP conjugated antibody was reacted at room temperature for 30 minutes, washed three times with a washing buffer solution, and treated with 50 μl of stop solution for each well, and then the optical density was measured at 450 nm with an ELISA microplate leader.

STAT6 = test: IL-4-induced STAT6 activity, pGL4-STAT6 luciferase reporter in A549 cells; assay type: cell-based
Description: In DMEM (Dulbecco Modified Eagle Medium, Hyclone, Thermo Scientific) medium to which 10% Fetal Bovine Serum was added, A549 cells were subcultured at a concentration of 1×10^5 cells/ml, and the cells were maintained in a 5% CO2 humidified incubator at 37° C., and cultured. The cultured A549 cells were inoculated into a 48 well plate by 1×10^5 cells/ml and stabilized for 18 hours. Thereafter, pGL4-STAT6 reporter vector containing a STAT6 binding promoter portion was mixed with Attractene to induce complex formation at room temperature for 15 minutes. This complex was treated with the cells and then further incubated for 24 hours. Thereafter, the culture solution was treated with a glycerol derivative compounds of the type shown in Table 8 and Table 9 below for 1 hour in the culture solution, and then IL-4 (2 ng/ml or 10 ng/ml) was further incubated for 20 hours for STAT6 activity. Thereafter, the culture supernatant was removed for each well, and the remaining cells were lysed with a cell lysis buffer, and then cell lysate was recovered. 90 μl of luciferase reagent was mixed with 10 μl of the recovered cell lysate, and the degree of fluorescence was confirmed using a luminometer.

CXCL8 (IL-8) = CXCL8 (IL-8) expression in Gemcitabine-stimulated THP-1 cells (ELISA); assay type: cell-based, human
Description: Thereafter 1.5 ml of the culture supernatant was collected for each well and centrifuged (at 3000 rpm, 5 minutes) to recover the supernatant.

STAT3 [2] = test: STAT3 activity, pGL4.47 [luc2P/SIE/Hygro] luciferase reporter in RAW264.7 cells; assay type: cell-based, mouse
Description: Thereafter, the culture supernatant was removed for each well, and the remaining cells were lysed with a cell lysis buffer, and then cell lysate was recovered. 90 μl of luciferase reagent was mixed with 10 μl of the recovered cell lysate, and the degree of fluorescence was confirmed using a luminometer.

IL-6 = test: LPS-induced IL-6 secretion in RAW264.7 cells (ELISA); assay type: cell-based, mouse; settings: for IL-6 concentration (average ± deviation): then LPS 1 μg/ml, 24 hours
Description: In DMEM (Hyclone, Thermo Scientific) medium to which 10% Fetal Bovine Serum was added, RAW264.7 cells, a mouse macrophage family, were suspended at a concentration of 1×10^5 cells/ml, and the cells were maintained in a 5% CO2 humidified incubator at 37° C., and cultured. The cultured RAW264.7 cells were inoculated into a 48 well plate by 5×10^4 cells/ml and stabilized for 15 hours. Then, the culture solution was treated with a glycerol derivative compounds of the type shown in Table 2 and 3 below for 1 hour and then was treated with 1 μg/ml of Lipopolysaccaride (LPS) of a cell stimulator, and subsequent further incubation was conducted for 24 hours. Thereafter 0.5 ml of the culture supernatant was collected for each well and centrifuged (at 3000 rpm, 5 minutes) to recover the supernatant. The IL-6 level in the recovered supernatant was measured according to the manual provided by the Mouse IL-6 ELISA set (BD Biosciences). The day before ELISA was carried out, the IL-6 capture antibody was diluted in phosphate buffered saline, coated on a microwell, and then stored at 4° C. overnight. Each well was washed three times with a washing buffer solution and then blocked with 2% Bovine Serum Albumin (BSA) for 1 hour at room temperature. After washing with buffer solution three times, 100 μl of sample was dispensed into each well and left at room temperature for 2 hours. Detection antibody which was washed 3 times with washing buffer solution and diluted was dispensed into each well and allowed to react at room temperature for 1 hour and left at room temperature for 1 hour. Thereafter, the secondary HRP conjugated antibody was reacted at room temperature for 30 minutes, washed three times with a washing buffer solution, and treated with 50 μl of stop solution for each well, and then the optical density was measured at 450 nm with an ELISA microplate leader.

HL-60 cells = test: Migration of HL-60 cell line using Transwell; assay type: cell-based, human
Description: Then, the culture solution was treated with a glycerol derivative compounds of the type shown in Table 7 below for 1 hour and then was treated with Gemcitabine (2 μg/ml) of a cell stimulator, and subsequent further incubation was conducted for 24 hours. Thereafter 1.5 ml of the culture supernatant was collected for each well and centrifuged (at 3000 rpm, 5 minutes) to recover the supernatant. […] The day before Transmigration assay was carried out, a 1× Lamin I solution was treated in the upper Invasion Chamber and coated. […] Thereafter the upper chamber was removed, and the cells were attached to the bottom of the lower chamber by a centrifuge, and then the supernatant was removed. Cell dissociation/Calcein-AM solution was added and reacted for 1 hour. Then, the value obtained using a fluorescence spectroscopy was calculated by converting the number of cells.

Molecule: CCCCC/C=C\C/C=C\CCCCCCCC(=O)OC(COC(C)=O)COC(=O)CCCCCCCCCCCCCCC (stereo not drawn) [EC-18, 1-palmitoyl-2-linoleoyl-3-acetylglycerol]
- decrease of STAT3 activity compared to the IL-6-treated group (STAT3 [1]): about 25%
- STAT3 activity SEAP expression(%) (average ± deviation) (STAT3 [1]; sample 100 μg/ml for 1 hour, then IL-6 5 ng/ml, 24 hours): 173.0 ± 7.9%
- IL-4 concentration (average ± deviation) (IL-4): 189.8 ± 38.5 pg/µL
- reduction of STAT6 activity (STAT6; IL-4-treated): about 50%
- STAT6 activity_Luciferase activity (average ± deviation) (STAT6; Table 9, sample 100 μg/ml for 1 hour, then IL-4 10 ng/ml, 20 hours): 1281.5 ± 26.1
- reduction of CXCL8 expression (CXCL8 (IL-8)): about 20%
- decrease of STAT3 activity (STAT3 [2]; LPS-treated): about 50%
- STAT3 activity_Luciferase activity (average ± deviation) (STAT3 [2]; sample 100 μg/ml for 1 hour, then LPS 1 μg/ml, 18 hours, negative control = 100.00): 393.64 ± 46.12
- decrease of IL-6 expression/secretion compared to the LPS-treated group (IL-6; LPS-stimulated): about 30%
- IL-6 concentration (average ± deviation) (IL-6; Table 2, sample 100 μg/ml for 1 hour): 0.194 ± 0.011 ng/mL
- IL-6 concentration (average ± deviation) (IL-6; Table 3, sample 100 μg/ml for 1 hour): 1.159 ± 0.036 ng/mL
- reduction of HL-60 cell migration, result in words (HL-60 cells; Transwell, comparison with negative control group or EC-18 (PLAG)): reduced to a degree similar to that of the negative control group

Molecule: Nc1ccn([C@@H]2O[C@H](CO)[C@@H](O)C2(F)F)c(=O)n1 [Gemcitabine]
- increase of neutrophil cell migration compared to the negative control group (HL-60 cells; Gemcitabine-treated THP-1 cells): increased by about twice

Molecule: IL-6: IL-6 cytokine used to induce STAT3 activity
- STAT3 activity SEAP expression(%) (average ± deviation) (STAT3 [1]; IL-6 5 ng/ml alone): 228.8 ± 17.0%

B1: IL-4: IL-4 used to induce STAT6 activity in A549 cells (protein, UniProt P05112 25-153, looked up)
Interleukin-4: HKCDITLQEIIKTLNSLTEQKTLCTELTVTDIFAASKNTTEKETFCRAATVLRQFYSHHEKDTRCLGATAQQFHRHKQLIRFLKRLDRNLWGLAGLNSCPVKEANQSTLENFLERLKTIMREKYSKCSS
- STAT6 activity_Luciferase activity (average ± deviation) (STAT6; Table 9, IL-4 alone, concentration printed 10): 2134.5 ± 17.6
